Assay results reported in US5952307A, “Basic α-aminoalkylphosphonate derivatives” (priority 1997, dated 1999).
Read-outs that look alike come from different tables or passages of the source.

Columns and labels:
human thrombin = molecular target: T1, human thrombin (Homo sapiens, UniProt P00734); type: biochemical; conditions: 25° C., NI = no inhibition
T1 construct: bovine trypsin, human thrombin
In short: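 Irreversible inactivation followed by incubation method at 25 °C: 0.07 μM thrombin with 0.25–42 μM inhibitor in 80 mM Hepes pH 7.5, 428 mM NaCl, 8% DMSO. Residual activity of withdrawn aliquots measured with thioester or 4-nitroanilide substrates; kobs from pseudo-first-order fits.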

bovine trypsin [1] = molecular target: T2, bovine trypsin (Bos taurus, UniProt P00760); assay: Inactivation rate of bovine trypsin, incubation method; type: biochemical; conditions: Table II; 0.13 μM trypsin, 0.25-42 μM inhibitor, 80 mM Hepes pH 7.5, 1 mM CaCl2, 8% DMSO, 25° C.; NI = no inhibition
T2 sequence (P00760 24-246): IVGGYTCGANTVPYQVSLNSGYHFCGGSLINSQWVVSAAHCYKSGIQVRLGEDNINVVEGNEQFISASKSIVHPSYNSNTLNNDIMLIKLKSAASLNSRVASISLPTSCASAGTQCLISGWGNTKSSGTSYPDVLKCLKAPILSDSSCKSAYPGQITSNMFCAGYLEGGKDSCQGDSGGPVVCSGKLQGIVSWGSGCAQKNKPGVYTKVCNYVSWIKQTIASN
In short: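 Incubation method: trypsin pre-incubated with inhibitor (0.25-42 μM) at 25° C in 80 mM Hepes, 1 mM CaCl2, pH 7.5, 8% DMSO; aliquots withdrawn over time for residual activity on Z-Arg-SBzl thioester with DTNB or 4,4'-dithiodipyridine. Pseudo-first-order kobs from ln vt/vo versus time.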

factor Xa = molecular target: T3, factor Xa (Homo sapiens, UniProt P00742); assay: Inactivation rate of factor Xa, incubation method; type: biochemical; conditions: Table II; 0.42 μM factor Xa, 66 μM inhibitor, 80 mM Hepes pH 7.5, 428 mM NaCl, 8% DMSO, 25° C.
T3 construct: human thrombin, factor Xa, plasmin
Method: (§1) Inactivation rates of serine proteases by aryl diesters of peptidyl derivatives of α-aminoalkylphosphonates were measured by the incubation method. An aliquot of inhibitor (25 or 50 μl) in Me2 SO was added to a buffered enzyme solution (0.01-2.3 μM) to initiate the inactivation. Aliquots (50 μl) were withdrawn at various intervals and the residual enzymatic activity was measured. Me2 SO concentration in the reaction mixture was 8-12% (v/v). A 0.1 M HEPES, 0.01 M CaCl2, pH 7.5 buffer was utilized for trypsin and trypsin-like enzymes. A 0.1 M HEPES, 0.5 M NaCl, pH 7.5, was utilized for the other serine proteases. Peptide thioesters or peptide nitroanilides with the appropriate sequences were used as substrates for various serine proteases. All peptide thioesters hydrolysis rates were measured with the assay mixture containing 4,4'-dithiodipyridine {ε324 =19800 M^-1 cm^-1; Grasetti & Murray, Arch. Biochem. Biophys. 1967, 119, 41-48}. Peptide 4-nitroanilide hydrolysis was measured at 410 nm {ε410 =8800 M^-1 cm^-1; Erlanger et al., Arch. Biochem. Biophys. 1961, 95, 271-278}. First order inactivation rate constants (Kobs) were obtained from plots of In vt /vo vs time, and the correlation coefficients were greater then 0.98.
^a Enzyme was incubated with the inhibitor in 250 μL of the proper
NaCl, 0.8 mM Mes, 9% glycerol and 8% DMSO; 0.42 μM factor Xa, 66 μM
inhibitor in an 80 mM Hepes, pH 7.5 buffer containing 428 mM NaCl and 8%
DMSO. Aliquots of 25 μL were withdrawn at various intervals and the
(§2) residual enzymatic activity was measured as described in experimental
(§3) section. The kobs values were calculated from pseudofirst-order

plasmin = molecular target: T4, plasmin (Homo sapiens, UniProt P00747); assay: Inactivation rate of plasmin, incubation method; type: biochemical; conditions: Table III; for kobs /[I] plasmin: enzyme 0.06-0.5 μM, inhibitor 0.25-42 μM, 9% DMSO, 25° C., NI = no inhibition
T4 construct: factor Xa, plasmin, and urokinase
Method: as §1
(§4) ^a Enzyme (0.06-0.5 μM) was incubated with the inhibitor (0.25-42
(§5) μM) in 250 μL of the proper buffer containing 9% DMSO at 25°
(§6) C. The final inhibition reaction mixtures are given in the footnote to
(§7) Table 1. Aliquots of 25 μL were withdrawn at various intervals and the
as §2, §3
^b Inhibitor concentration of 0.24 mM.

mast cell tryptase = mast cell tryptase (Homo sapiens, UniProt Q15661); assay: Inactivation rate of mast cell tryptase, incubation method; type: biochemical; conditions: Table III; enzyme 0.06-0.5 μM, inhibitor 0.25-42 μM, 9% DMSO, 25° C.; NI = no inhibition
In short: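 Incubation method at 25 °C: 0.07 μM tryptase with 20–66 μM inhibitor in Hepes pH 7.5 containing heparin, glycerol and DMSO. Aliquots were withdrawn at intervals for residual activity on Z-Arg-SBzl or Z-Lys-SBzl with DTNB. Pseudo-first-order kobs came from ln(vt/v0) versus time.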

urokinase = urokinase (Homo sapiens, UniProt P00749); assay: Inactivation rate of urokinase, incubation method; type: biochemical; conditions: Table III; enzyme 0.06-0.5 μM, inhibitor 0.25-42 μM, 9% DMSO, 25° C.; NI = no inhibition
Method: as §1, §4, §5, §6, §7, §2, §3

bovine trypsin [2] = molecular target: T2, bovine trypsin; assay: Inactivation rate of bovine trypsin, incubation method; type: biochemical; conditions: Table III; enzyme 0.06-0.5 μM, inhibitor 0.25-42 μM, 9% DMSO, 25° C.; NI = no inhibition
[3] = Hydrolysis (stability) in human plasma; type: in vitro ADME
Description: Furthermore, they show excellent stability in human plasma. For example Suc-Val-Pro-Phe^P (OPh)2 has a hydrolysis half-time in human plasma of about 20 hrs. […] Thus they can be used under a variety of conditions. Phosphonates have the additional advantage of being very stable in plasma and will have a high effectiveness in vivo due to their long lifetimes.

[4] = Table II, 0.07 μM thrombin, 0.25-42 μM inhibitor, 80 mM Hepes pH 7.5, 428 mM NaCl, 8% DMSO
[5] = Table III, enzyme 0.06-0.5 μM, inhibitor 0.25-42 μM, 9% DMSO

T3 sequence (P00742 235-488 limits assumed): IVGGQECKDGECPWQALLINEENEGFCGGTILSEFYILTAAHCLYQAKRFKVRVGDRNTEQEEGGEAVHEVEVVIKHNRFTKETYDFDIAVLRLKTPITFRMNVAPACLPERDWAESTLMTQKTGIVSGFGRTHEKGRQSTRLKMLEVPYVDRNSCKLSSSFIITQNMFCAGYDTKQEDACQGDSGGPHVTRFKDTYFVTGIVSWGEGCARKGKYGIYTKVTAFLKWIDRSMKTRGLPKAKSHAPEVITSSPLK
T3 sequence (P00742 41-179 partner limits assumed): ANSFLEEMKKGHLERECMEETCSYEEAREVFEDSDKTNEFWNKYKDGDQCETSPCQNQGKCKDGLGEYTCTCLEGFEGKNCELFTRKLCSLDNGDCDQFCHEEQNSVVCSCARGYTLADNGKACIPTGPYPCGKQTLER
T4 sequence (P00747 581-810 limits assumed, species assumed): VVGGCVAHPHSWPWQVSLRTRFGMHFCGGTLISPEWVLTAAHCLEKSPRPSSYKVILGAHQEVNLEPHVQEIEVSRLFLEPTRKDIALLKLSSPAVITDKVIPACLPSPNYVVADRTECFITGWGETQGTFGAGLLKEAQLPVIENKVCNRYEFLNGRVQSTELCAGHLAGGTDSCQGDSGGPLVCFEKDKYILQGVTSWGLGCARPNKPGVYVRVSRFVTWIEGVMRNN
T4 sequence (P00747 97-580 partner limits assumed, species assumed): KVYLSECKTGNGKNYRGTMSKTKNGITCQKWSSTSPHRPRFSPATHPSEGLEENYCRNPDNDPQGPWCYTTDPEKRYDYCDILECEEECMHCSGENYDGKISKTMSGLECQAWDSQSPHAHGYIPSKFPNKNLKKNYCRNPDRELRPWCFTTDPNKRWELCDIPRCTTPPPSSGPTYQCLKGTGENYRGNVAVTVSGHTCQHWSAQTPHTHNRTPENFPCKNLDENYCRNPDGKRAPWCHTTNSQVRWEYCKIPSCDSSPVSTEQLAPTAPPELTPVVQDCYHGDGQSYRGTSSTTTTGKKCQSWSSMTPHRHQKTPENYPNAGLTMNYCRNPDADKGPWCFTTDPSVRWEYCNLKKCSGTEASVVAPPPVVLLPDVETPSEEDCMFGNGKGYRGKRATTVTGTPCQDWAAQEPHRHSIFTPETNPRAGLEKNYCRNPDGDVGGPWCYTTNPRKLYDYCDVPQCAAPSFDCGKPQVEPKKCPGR
Sequence of mast cell tryptase (Q15661 31-275): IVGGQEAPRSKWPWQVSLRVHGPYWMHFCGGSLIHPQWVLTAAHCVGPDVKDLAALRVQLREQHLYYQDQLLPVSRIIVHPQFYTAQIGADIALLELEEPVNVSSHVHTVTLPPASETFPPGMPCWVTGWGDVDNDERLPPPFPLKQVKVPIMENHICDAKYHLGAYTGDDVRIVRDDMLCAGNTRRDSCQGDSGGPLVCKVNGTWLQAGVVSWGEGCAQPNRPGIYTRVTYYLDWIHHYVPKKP

Row | Compound | kobs /[I] human thrombin (human thrombin; [4]) | kobs /[I] bovine trypsin (bovine trypsin [1]) | kobs /[I] factor Xa (factor Xa) [M⁻¹ s⁻¹] | kobs /[I] plasmin (plasmin) [M⁻¹ s⁻¹] | kobs /[I] mast cell tryptase (mast cell tryptase) [M⁻¹ s⁻¹] | kobs /[I] urokinase (urokinase) [M⁻¹ s⁻¹] | kobs /[I] human thrombin (human thrombin; [5]) | kobs /[I] bovine trypsin (bovine trypsin [2]) | % Inh plasmin (plasmin; inhibitor concentration of 0.24 mM) [%] | hydrolysis half-time in human plasma [3]
1 | CC(C)CC(NC(=O)OC(C)(C)C)C(=O)NCC(=O)NC(c1ccc(C(=N)N)cc1)P(=O)(Oc1ccccc1)Oc1ccccc1 (mixture of isomers) [Boc--D--Leu--Gly-(4-AmPhGly)^P (OPh)2] | 1,187 ± 76 M^-1 s^-1 | 2,960 ± 300 M^-1 s^-1 | 10 ± 0.4 | – | – | – | – | – | – | –
2 | CC(C)(C)OC(=O)NC(Cc1ccccc1)C(=O)NCC(=O)NC(c1ccc(C(=N)N)cc1)P(=O)(Oc1ccccc1)Oc1ccccc1 (mixture of isomers) [Boc--D--Phe--Gly-(4-AmPhGly)^P (OPh)2] | 2,225 ± 106 M^-1 s^-1 | 6,620 ± 835 M^-1 s^-1 | 2.8 ± 0 | – | – | – | – | – | – | –
3 | CC(C)CC(NC(=O)C(Cc1ccccc1)NC(=O)OC(C)(C)C)C(=O)NC(c1ccc(C(=N)N)cc1)P(=O)(Oc1ccccc1)Oc1ccccc1 (mixture of isomers) [Boc--D--Phe--Leu-(4-AmPhGly)^P (OPh)2] | 921 ± 44 M⁻¹ s⁻¹ | 24 ± 2 M⁻¹ s⁻¹ | 1.4 ± 0.4 | – | – | – | – | – | – | –
4 | CC(C)CC(NC(=O)OC(C)(C)C)C(=O)NC(CC(=O)OC(C)(C)C)C(=O)N1CCCC1C(=O)NC(c1ccc(C(=N)N)cc1)P(=O)(Oc1ccccc1)Oc1ccccc1 (mixture of isomers) [Boc--Leu--Asp(O-t-Bu)--Pro-(4-AmPhGly)^P (OPh)2] | 502 ± 21 M⁻¹ s⁻¹ | 670 ± 53 M⁻¹ s⁻¹ | 8 ± 1 | – | – | – | – | – | – | –
5 | CC(C)(C)OC(=O)NC(CO)C(=O)NC(c1ccc(C(=N)N)cc1)P(=O)(Oc1ccccc1)Oc1ccccc1 (mixture of isomers) [Boc--Ser-(4-AmPhGly)^P (OPh)2] | 31 ± 2 M⁻¹ s⁻¹ | 20 ± 1 M⁻¹ s⁻¹ | 3.5 ± 0.4 | – | – | – | – | – | – | –
6 | N=C(N)c1ccc(C(NC(=O)CNC(=O)C(CCC(=O)O)NC(=O)OCc2ccccc2)P(=O)(Oc2ccccc2)Oc2ccccc2)cc1 (mixture of isomers) [Cbz--Glu--Gly-(4-AmPhGly)^P (OPh)2] | 46 ± 5 M⁻¹ s⁻¹ | 70 ± 5 M⁻¹ s⁻¹ | 1.4 ± 0.1 | – | – | – | – | – | – | –
7 | CC(C)CC(N)C(=O)NC(CC(=O)O)C(=O)N1CCCC1C(=O)NC(c1ccc(C(=N)N)cc1)P(=O)(Oc1ccccc1)Oc1ccccc1 (mixture of isomers) [Leu--Asp--Pro-(4-AmPhGly)^P (OPh)2] | 65 ± 1 M⁻¹ s⁻¹ | 204 ± 19 M⁻¹ s⁻¹ | 1.3 ± 0.2 | – | – | – | – | – | – | –
8 | Cl.NCCCCCC(NC(=O)[C@@H]1CCCN1C(=O)c1ccccc1Oc1ccccc1)P(=O)(Oc1ccccc1)Oc1ccccc1 (stereo partly shown) [2-Phenoxybenzoyl-Pro-HomoLys^P (OPh)2, Diphenyl 1-(N-(2-Phenoxybenzoylprolyl)amino)-6-aminohexanephosphonate Hydrochloride] | – | – | – | 3.6 ± 0.4 | 7.7 ± 0.3 | 24 ± 4 | 57 ± 5 M⁻¹ s⁻¹ | 69 ± 13 M⁻¹ s⁻¹ | – | –
9 | NCCCCC(NC(=O)[C@@H]1CCCN1C(=O)CC(c1ccccc1)c1ccccc1)P(=O)(Oc1ccccc1)Oc1ccccc1 (stereo partly shown) [3,3-Diphenylpropanoyl-Pro--Lys^P (OPh)2] | – | – | – | 7.0 ± 0.2 | 74 ± 9 | 1.5 ± 0.0 | 27,450 ± 803 M^-1 s^-1 | 14,447 ± 905 M^-1 s^-1 | – | –
10 | NCCCCCC(NC(=O)[C@@H]1CCCN1C(=O)CC(c1ccccc1)c1ccccc1)P(=O)(Oc1ccccc1)Oc1ccccc1 (stereo partly shown) [3,3-Diphenylpropanoyl-Pro-HomoLys^P (OPh)2] | – | – | – | – | 1.1 ± 0.0 | 2.1 ± 0.2 | 224 ± 8 M⁻¹ s⁻¹ | 16 ± 1 M⁻¹ s⁻¹ | 50 | –
11 | Cl.NCCCCC(NC(=O)[C@@H]1CCCN1C(=O)c1cccc(Oc2ccccc2)c1)P(=O)(Oc1ccccc1)Oc1ccccc1 (stereo partly shown) [3-Phenoxybenzoyl-Pro--Lys^P (OPh)2, Diphenyl 1-(N-(3-Phenoxybenzoylprolyl)amino)-5-aminopentanephosphonate Hydrochloride] | – | – | – | 7.4 ± 0.6 | 16 ± 1 | 1.6 ± 0.1 | 1,142 ± 52 M^-1 s^-1 | 19,380 ± 300 M^-1 s^-1 | – | –
12 | Cl.NCCCCCC(NC(=O)[C@@H]1CCCN1C(=O)c1cccc(Oc2ccccc2)c1)P(=O)(Oc1ccccc1)Oc1ccccc1 (stereo partly shown) [3-Phenoxybenzoyl-Pro-HomoLys^P (OPh)2, Diphenyl 1-(N-(3-Phenoxybenzoylprolyl)amino)-6-aminohexanephosphonate Hydrochloride] | – | – | – | 4.6 ± 0.1 | 10 ± 3 | 22 ± 1 | 27 ± 5 M⁻¹ s⁻¹ | 116 ± 34 M⁻¹ s⁻¹ | – | –
13 | Cl.NCCCCC(NC(=O)OCc1ccccc1)P(=O)(Oc1ccccc1)Oc1ccccc1 (stereo not shown) [Cbz--Lys^P (OPh)2, Diphenyl N-(N-Benzyloxycarbonyl)amino(4-aminobutyl)methanephosphonate Hydrochloride] | – | – | – | 8.2 ± 0.4 | 17 ± 1 | 15 ± 2 | 17 M⁻¹ s⁻¹ | 6,235 M^-1 s^-1 | – | –
14 | CC(C)[C@H](NC(=O)CCC(=O)O)C(=O)N1CCC[C@H]1C(=O)NC(Cc1ccccc1)P(=O)(Oc1ccccc1)Oc1ccccc1 (stereo partly drawn) [Suc-Val-Pro-Phe^P (OPh)2] | – | – | – | – | – | – | – | – | – | about 20 hrs
